# From patent US20050059641A1, “Compositions and methods for treating and preventing cancer using analogs of vitamin D” (Aphios Corporation, priority 2003, published 2005)
# Entries after “also recorded” stand apart in the source; their conditions may differ.
# Experiments:
# [1] = tested on: prostate tumor induced with PC-3 cells; test: in vivo effect in mice bearing prostate tumor induced with PC-3 cells; design: species or system male SCID mice; conditions: SCID mice with PC-3 tumor; 25-OH-D3 10 μg or 25-OH-D3-3-BE 13.2 μg (molar equivalent) i.p. in alternate days for two weeks
# Procedure: Sesame oil solutions (200 μl) of either 25-OH-D3 (10 μg) or 25-OH-D3-3-BE (13.2 μg, molar equivalent of 25-OH-D3) or vehicle were administered i.p. in alternate days for two weeks. […] At the end, mice were anesthetized, tumors were removed, and blood was collected. Tumors were embedded in paraffin and sections were made.
# [2] = in vivo toxicity study in CD-1 mice; conditions: CD-1 mice; for Body Weight On Day 0: beginning of the experiment
# From the text: Investigators completed an in vivo study to determine the toxicity of 25-OH-D3-3-BE at various doses in CD-1 mice. The animals (average weight ˜30 gms) were maintained with normal chow and water ad libitum. […] At the end of the experiment the animals were lightly anesthetized and blood collected after decapitation for serum calcium-analysis. […] Frequency of administration, body weights at the beginning and at the end of the experiment and serum calcium values are given in the accompanying Table 1.
# [3] = tested on: PC-3 cells; test: DNA-fragmentation analysis; type: cell-based, human; conditions: 250 nM, 10 hours
# Procedure: (a) DNA-fragmentation analysis: PC-3 cells (2×10^6) were treated with 250 nM of 1,25(OH)2D3, 25-OH-D3 or 25-OH-D3-3-BE for 10 hours. The cells were harvested and lysed in 0.5 ml lysis buffer (20 mM Tris-HCl, 10 mM EDTA, 0.5% Triton X-100, pH 8.0), and DNA was extracted using phenol-chloroform procedure. The DNA was resuspended in 0.1 ml of 20 mM Tris-HCl, pH 8 and treated with Rnase, followed by electrophoresis on 1.2% agarose gel in TAE. The DNA was visualized under UV light after ethidinium bromide staining.
# [4] = target: VDR (Homo sapiens, UniProt P11473); conditions: compared with 1,25(OH)2D3; cited from earlier work
# VDR, sequence (P11473 whole entry, species assumed): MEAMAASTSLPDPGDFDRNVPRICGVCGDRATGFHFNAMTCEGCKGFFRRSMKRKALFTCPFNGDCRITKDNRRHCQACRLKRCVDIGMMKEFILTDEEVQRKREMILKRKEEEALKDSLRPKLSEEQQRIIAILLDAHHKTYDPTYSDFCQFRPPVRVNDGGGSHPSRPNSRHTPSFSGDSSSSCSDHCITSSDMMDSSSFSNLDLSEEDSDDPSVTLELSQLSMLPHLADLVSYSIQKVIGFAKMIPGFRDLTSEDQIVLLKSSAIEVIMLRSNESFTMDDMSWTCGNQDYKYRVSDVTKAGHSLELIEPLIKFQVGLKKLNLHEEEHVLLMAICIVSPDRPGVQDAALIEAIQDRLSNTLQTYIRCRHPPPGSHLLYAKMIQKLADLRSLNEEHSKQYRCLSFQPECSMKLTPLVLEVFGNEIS
# [5] = tested on: LNCaP cells; test: Methylene blue assay, viable cell count, LNCaP; conditions: 10^−6M, 16 hours
# Procedure: (§1) The inventors further studied the effect of 1,25(OH)2D3-3-BE on LNCAP cells (most closely resembling human hormone-sensitive prostate cancer) and PZ-HPV-7 cells (immortalized normal prostate cells). The cells were treated with ethanol or 10^−6M of either 1,25(OH)2D3 or 1,25(OH)2D3-3-BE for 16 hours and the effect on proliferation was determined by ^3H-thymidine incorporation assays as described earlier. The viable cell count was determined by Methylene blue assay. The Methylene blue assay is a simple colorimetric method that is widely used to determine the viable cell count.
# The inventors studied dose-dependency of antiproliferation and cytotoxicity by 1,25(OH)2D3 or 1,25(OH)2D3-3-BE in LNCaP cells. The cells were treated with 10^−8-10^−6M of either 1,25(OH)2D3 or 1,25(OH)2D3-3-BE or ethanol (used as a control). The effect on proliferation and viable cell count were determined by using ^3H-thymidine incorporation and Methylene blue assay respectively.
# [6] = tested on: hormone-refractory PC3 cells; test: microscopic examination of the cells, PC3; type: cell-based, human; conditions: PC3, treated for sixteen (16) hours
# [7] = tested on: intestinal cancer Caco-2 cells; conditions: compared with 1,25(OH)2D3; cited from earlier work
# [8] = tested on: LNCaP cells (prostate cancer cells); test: 3H-thymidine incorporation assay, LNCaP; type: cell-based, human; conditions: for effect on proliferation (3H-thymidine incorporation): 10^−6M, 16 hours; for dose-dependency of antiproliferative effect: 10^−8-10^−6M; for antiproliferative effect (3H-thymidine incorporation): compared to 1,25(OH)2D3
# Procedure: as §1
# The inventors studied dose-dependency of antiproliferation and cytotoxicity by 1,25(OH)2D3 or 1,25(OH)2D3-3-BE in LNCaP cells. The cells were treated with 10^−8-10^−6M of either 1,25(OH)2D3 or 1,25(OH)2D3-3-BE or ethanol (used as a control). The effect on proliferation and viable cell count were determined by using ^3H-thymidine incorporation and Methylene blue assay respectively. […]
# (§2) In a study, investigators compared the growth-inhibitory effects of 25-OH-D3-3-BE and 1,25(OH)2D3 in several VDR-positive epithelial cells, e.g. keratinocytes (primary skin cells), MCF-7 cells (breast cancer cells), hormone-sensitive LNCaP and hormone-refractory PC3 cells (prostate cancer cells), and PZ-HPV-7 (papillovirus immortalized normal prostate cells) by using ^3H-thymidine incorporation assays (FIGS. 14-19).
# [9] = tested on: PC3 cells (prostate cancer cells); test: 3H-thymidine incorporation assay, PC3; type: cell-based, human; conditions: for antiproliferative effect (3H-thymidine incorporation): PC3 cells, compared to 1,25(OH)2D3
# From the text: (§3) It is well known that secretory epithelial cells are the main sites for the development of cancers of the breast, prostate and various other organs.
# as §2
# Since 25-OH-D3-3-BE contains an ester bond, its hydrolysis by esterases in growing cells would produce equimolar amounts of bromoacetic acid (BAA) and 25-OH-D3 (see, FIG. 21).
# Furthermore, fetal calf serum (FCS) contains many proteins, including vitamin D-binding protein, which potentially could absorb 25-OH-D3-3-BE before it reacts with VDR. Typically, the assays described herein were carried out in a media containing 10% FCS (after serum-depriving the cells for 15 hours).
# [10] = tested on: VDR-regulated genes; conditions: higher level sustained for a longer duration at a lower concentration of the analog; cited from earlier work
# [11] = target: vitamin D receptor, VDR (Homo sapiens, UniProt P11473); conditions: cited from earlier work
# vitamin D receptor, VDR, sequence (P11473 whole entry): as the sequence (P11473 whole entry, species assumed) above
# [12] = tested on: PZ-HPV-7 (papillovirus immortalized normal prostate cells); test: 3H-thymidine incorporation assay, PZ-HPV-7; type: cell-based; conditions: PZ-HPV-7 cells; for effect on proliferation (3H-thymidine incorporation): 10^−6M, 16 hours; for antiproliferative effect (3H-thymidine incorporation): compared to 1,25(OH)2D3
# Procedure: as §3, §1, §2
# [13] = tested on: MCF-7 cells (breast cancer cells); test: 3H-thymidine incorporation assay, MCF-7; type: cell-based; conditions: compared to 1,25(OH)2D3
# From the text: as §3
# It is well-established that the biological properties of 1,25(OH)2D3 and its analogs are mediated by their interaction with VDR.
# as §2
# [14] = tested on: breast cancer cells (MCF-7); test: microscopic examination of the cells, MCF-7; type: cell-based; conditions: MCF-7, treated for sixteen (16) hours
# [15] = tested on: keratinocytes (primary cells); test: 3H-thymidine incorporation assay, keratinocytes; type: cell-based, human; conditions: compared to 1,25(OH)2D3
# From the text: as §3, §2
# [16] = tested on: PZ-HPV-7 cells; test: Methylene blue assay, viable cell count, PZ-HPV-7; type: cell-based; conditions: 10^−6M, 16 hours
# [17] = tested on: primary cultures of normal human keratinocytes; test: microscopic examination of the cells, keratinocytes; type: cell-based; conditions: treated for sixteen (16) hours
# [18] = tested on: hormone-sensitive LNCaP cells; test: microscopic examination of the cells, LNCaP; type: cell-based, human; conditions: treated for sixteen (16) hours
# [19] = tested on: immortalized normal prostate cells (PZ-HPV-7); test: microscopic examination of the cells, PZ-HPV-7; type: cell-based; conditions: PZ-HPV-7, treated for sixteen (16) hours
Compound,DNA fragmentation (apoptosis) [3],microscopic appearance of the cells [6],effect on proliferation (3H-thymidine incorporation) [8],dose-dependency of antiproliferative effect [8],antiproliferative effect (3H-thymidine incorporation) [8],antiproliferative effect (3H-thymidine incorporation) [9],effect on proliferation (3H-thymidine incorporation) [12],antiproliferative effect (3H-thymidine incorporation) [12],antiproliferative effect (3H-thymidine incorporation) [13],microscopic appearance of the cells [14],antiproliferative effect (3H-thymidine incorporation) [15],microscopic appearance of the cells [17],microscopic appearance of the cells [18],microscopic appearance of the cells [19],other results
"C=C1CC[C@H](O)C/C1=C/C=C1\CCC[C@]2(C)[C@@H]([C@H](C)CCCC(C)(C)O)CC[C@@H]12 [25-OH-D3, 25-hydroxyvitamin D3, reference compound]",no such DNA cleavage was observed,–,–,–,–,–,–,–,–,–,–,–,–,–,"condition of the mice at the end of treatment [1]: very sick, and most of them died; Body Weight on Day 12 ([2]; 3.3 μg/kg intraperitoneally): 33.5 ± 1 grams; Body Weight On Day 0 ([2]; 3.3 μg/kg intraperitoneally): 31.5 ± 1.56 grams; Body Weight on Day 12 ([2]; 33 μg/kg intraperitoneally): 30.66 ± 2 grams; Body Weight On Day 0 ([2]; 33 μg/kg intraperitoneally): 28.9 ± 2 grams; VDR-binding ability [4]: significantly low VDR-binding ability"
"C=C1/C(=C\C=C2/CCC[C@@]3(C)C2CC[C@@H]3C(C)CCCC(C)(C)O)C[C@@H](OC(=O)CBr)CC1O (stereo partly drawn) [1,25(OH)2D3-3-BE, 1α,25-dihydroxy-vitamin D3-3β-(2)-bromoacetate]",–,appeared to have undergone apoptosis,almost completely inhibited,most pronounced at 10^−6M,stronger antiproliferative effect; also recorded: dose-dependant antiproliferation,stronger antiproliferative effect; also recorded: dose-dependant antiproliferation,almost completely inhibited,stronger antiproliferative effect; also recorded: dose-dependant antiproliferation,stronger antiproliferative effect; also recorded: dose-dependant antiproliferation,appeared normal,stronger antiproliferative effect; also recorded: dose-dependant antiproliferation,appeared normal,appeared to have undergone apoptosis,appeared normal,"viable cell count diminished by [5]: approximately 60%; calcemic index [7]: lower calcemic index than 1,25(OH)2D3; decrease of proliferation compared with 1,25(OH)2D3 ([8]; dose levels of 10^−6 and 10^−7M): much stronger in decreasing the proliferation than 1,25(OH)2D3; transcription of VDR-regulated genes [10]: increased transcription; speed of cross-linking to VDR [11]: extremely rapid; viable cell count diminished by [16]: approximately 15%"
"O=C(O)CBr [bromoacetic acid, reference compound]",–,–,–,–,no effect,–,–,–,no effect,–,–,–,–,–,"growth-inhibitory effect (3H-thymidine incorporation) ([9]; PC-3 cells, 10^−6M): not antiproliferative"
"C=C1/C(=C\C=C2/CCC[C@]3(C)[C@@H]([C@H](C)CCCC(C)(C)O)CC[C@@H]23)C[C@@H](O)C[C@@H]1O [1,25(OH)2D3, 1-α,25-dihydroxyvitamin D3, reference compound]",no such DNA cleavage was observed,appeared normal,only inhibition of proliferation,most pronounced at 10^−6M,dose-dependant antiproliferation,dose-dependant antiproliferation,only inhibition of proliferation,dose-dependant antiproliferation,dose-dependant antiproliferation,appeared normal,dose-dependant antiproliferation,appeared normal,appeared normal,appeared normal,–
"O=C(CBr)OCc1ccccc1 [benzylbomacetate, benzylbormoacetate, reference compound]",–,–,–,–,no effect,–,–,–,no effect,–,–,–,–,–,–
